According to PubChem BioAssay AID449762 (Southern Research Specialized Biocontainment Screening …, 2010):
Inconclusive results are not listed.

System: M. tuberculosis H37Rv growth inhibition, 7H9 media
Experiment: M. tuberculosis growth inhibition, HTS (AID 449762);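 further: bacterial growth assessed after seven days of incubation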
Conditions: for IC90: measured here: IC90 growth inhibition

| Structure (SMILES) | IC50 | IC90 |
| --- | --- | --- |
| O=c1oc(-c2cccs2)nc2c1cnn2-c1ccccc1 | 64.5 µM | > 100 µM |
| O=C1c2ccccc2CC1Sc1nnc(-c2ccncc2)o1 (stereo not drawn) | 20.6 µM | 30 µM |
| Cn1c(=O)c2c3c(sc2n2c(SCC(N)=O)nnc12)CC(C(C)(C)C)CC3 (stereo not drawn) | 19.4 µM | 32.9 µM |
| CCOC(=O)CNc1ccc(C(=O)OCC)cc1[N+](=O)[O-] | 8.45 µM | 22.6 µM |
| CC(C)(C)c1ccc(OCCCC(=O)NC2=NCCS2)cc1 | 23 µM | 60.6 µM |
| Cc1c(Cl)c([N+](=O)[O-])nn1Cc1ccc(C(=O)N/N=C\c2cccc(Br)c2)o1 | 66.7 µM | > 100 µM |
| CCOC(=O)c1ccc(NC(=O)CSc2ccc(-c3cccnc3)nn2)cc1 | – | > 100 µM |
| O=C(OCn1nnc2ccccc2c1=O)C1CCCCC1 | 3.56 µM | 7.16 µM |
| Cc1cc(/C=N/n2cnnc2)c(C)n1-c1ccc(OCc2ccc(Cl)cc2Cl)cc1 | 7.25 µM | 15.8 µM |
| Cc1ccc(N(CCC#N)C(=O)CCl)cc1C | 0.98 µM | 4.41 µM |
| CCOC(=O)c1ccc(N=Cc2nc3ccccc3n2C)cc1 | 63.5 µM | > 100 µM |
| COC(=O)CSc1[nH]c2ccc(Br)cc2c1[N+](=O)[O-] | 5.64 µM | 9.31 µM |
| Clc1ccc(-c2cc3ccccc3nc2N2CCCC2)cc1 | 69.2 µM | > 100 µM |
| Cc1ccc(Nc2nc(N)c([N+](=O)[O-])c(N3CCCC(C)C3)n2)cc1C (stereo not drawn) | 99.9 µM | > 100 µM |
| CC1(CCc2ccccc2)NC(=S)N(c2ccc(Cl)cc2)N1 (stereo not drawn) | – | > 100 µM |
| Cc1ccc(OCCCCNC2CCCC(C)C2C)c(C)c1 (stereo not drawn) | 21.8 µM | 24.2 µM |
| O=S1(=O)N(CCN2CC=C(c3c[nH]c4cc(F)ccc34)CC2)c2cccc3c2N1CCC3 | 11.1 µM | 11.7 µM |
| CCCC(=O)OCCNc1cc(SCCC(=O)OC)c2nonc2c1[N+](=O)[O-] | 1.49 µM | 5.7 µM |
| CCc1nc2ccccc2c(C(=O)Nc2cc(C)ccc2C)c1C | 13 µM | > 100 µM |
| c1ccc(CCN2CCN(c3ncnc4c3cnn4-c3ccccc3)CC2)cc1 | 21.3 µM | 43 µM |
| C1=C(c2c[nH]c3ccccc23)CCNC1 | 32.4 µM | 39.8 µM |
| Cc1cnc(NC(=O)NCC2CCCC(CNC(=O)Nc3ncc(C)s3)C2)s1 (stereo not drawn) | 24.8 µM | 28.2 µM |
| CCCn1nnc(NC(=O)COc2ccc(CC)cc2)n1 | 29.7 µM | > 100 µM |

| Structure (SMILES) | IC50 | IC90 |
| --- | --- | --- |
| Cc1cccc2c1-c1sc(C(=O)Nc3ccccc3N3CCN(C)CC3)cc1CO2 | 17.9 µM | 25.1 µM |
| CN(C)C(=O)c1ccc(NC(=O)COC(=O)c2cc3c(s2)CCCCC3)cc1 | 45.8 µM | > 100 µM |
| CCOc1cc(/C=C\[N+](=O)[O-])ccc1OCC(=O)Nc1ccccc1C | 6.93 µM | 33.8 µM |
| N#C/C(=C1\CCCN1)c1nc(-c2ccccc2)cs1 | – | > 100 µM |
| CC(C)Oc1ccc(-c2nc(NCC3CCCO3)c3ccccc3n2)cc1 (stereo not drawn) | 68 µM | 91.3 µM |
| CCCc1cc2c(cc1NC(=O)c1ccccc1Cl)OCO2 | 1.98 µM | > 100 µM |
| CCc1nnc(NC(=O)CN2CCN(c3nc(-c4ccccc4)cs3)CC2)s1 | 45.8 µM | 52.4 µM |
| COc1cc(/C=N/NC(=O)COc2ccc(C)cc2)ccc1OC(=O)c1cccs1 | 18.1 µM | 30.2 µM |
| Cc1ccc(NCCC(=O)c2ccc(Br)cc2)cc1 | 10.6 µM | 21.5 µM |
| O=C1CC(/C=C/c2ccc(Cl)cc2)=Nc2ccccc2N1 | 12.1 µM | 14.1 µM |
| O[C@@H](c1cc(C(F)(F)F)nc2c(C(F)(F)F)cccc12)[C@H]1CCCCN1 | 18.2 µM | 24.5 µM |
| COc1cccc(NC(=O)CNC(=O)Cn2cnc3sc4c(c3c2=O)CCCC4)c1 | 36.6 µM | > 100 µM |
| c1ccc(-c2nc3nonc3nc2-c2ccccc2)cc1 | 33.5 µM | 43.9 µM |
| C=CCC1(CC=C)CCCN1C(=O)c1cc(COc2ccc(-n3cncn3)cc2)on1 | 41.8 µM | > 100 µM |
| CCc1ccc(N=CC23c4ccccc4C(c4ccccc42)C2C(=O)N(c4ccc(OC)cc4)C(=O)C23)cc1 (stereo not drawn) | 53.1 µM | > 100 µM |
| Cc1cccc2c1N(CCCOc1ccc(C(C)(C)C)cc1)C(=O)C2=O | 17.3 µM | 20.7 µM |
| CN(C)c1nc(NCc2ccccc2)nc(N/N=C/c2ccc3c(c2)OCO3)n1 | 42.7 µM | > 100 µM |
| Cc1ccc(OC/C(O)=C(\C#N)c2nc3ccccc3s2)cc1 | 20.7 µM | 34 µM |
| COc1ccc(Cc2nnc(SCC(=O)N(c3ccccc3)C(C)C)n(N)c2=O)cc1 | 40.9 µM | 74.4 µM |
| CSc1ccccc1OCc1cc(C(=O)N2CCC(Oc3cccnc3)CC2)no1 | 24 µM | 27.6 µM |
| Cn1nnc(NC(=S)NC(=O)c2ccc(-c3ccc(Br)cc3)o2)n1 | – | > 100 µM |
| CCCCn1c(O)c(/C=C2/C=CC=N2)c(=O)[nH]c1=O | 6.55 µM | 17.1 µM |
| CCOC(=O)N1CCN(C(=O)CSc2nnc(-c3ccc(Cl)s3)o2)CC1 | 13.1 µM | 34.1 µM |

| Structure (SMILES) | IC50 | IC90 |
| --- | --- | --- |
| CSCCOC(=O)COc1ccc(/C=N/NC(=O)c2c(Cl)cnn2C)cc1 | 9.04 µM | 22.6 µM |
| CCOC(=O)COc1ccc(/C=C2\NC(=S)N(CC)C2=O)cc1 | 1.17 µM | 8.47 µM |
| CCOc1ccc(OCCSc2ccc(S(=O)(=O)N3CCN(C)CC3)cn2)cc1 | 22.1 µM | 28.6 µM |
| CC(C)(C)c1nc2sc3c(c2c(=O)o1)CCCC3 | – | > 100 µM |
| O=[N+]([O-])c1cn(-c2nc(-c3ccco3)cc(C(F)(F)F)n2)cn1 | 1.77 µM | 22 µM |
| COc1ccc(-n2c(-c3ccc(Cl)cc3)c[n+]3c2CCc2ccccc2-3)cc1 | 16.4 µM | 24.2 µM |
| CCN(CC)c1ccc(/C=C2\SC(=O)N(C(C)C)C2=O)o1 | 1.34 µM | 4.79 µM |
| CN1CCN(C2Cc3ccccc3Sc3cc(C(F)(F)F)ccc32)CC1 (stereo not drawn) | 13.5 µM | 15.6 µM |
| O=C(NC(=S)Nc1ccc(N2CCCCC2)c(Cl)c1)c1cccs1 | 20.2 µM | 27.1 µM |
| Nc1ccc2cc(Br)ccc2c1 | 51.8 µM | 84.9 µM |
| CCN1c2ccccc2N(C)C1(C)c1ccccc1 (stereo not drawn) | 6 µM | 6.79 µM |
| CCOC(=O)c1sc2nc3n(c(=O)c2c1C)CCC(C)CC3 (stereo not drawn) | 17 µM | 39 µM |
| COc1ccccc1N1C(=O)NC(=O)/C(=C/c2ccc([N+](=O)[O-])s2)C1=O | – | > 100 µM |
| COC(=O)c1ccc(CSc2nc(C(F)(F)F)c3c(c2C#N)CCC3)o1 | 47.1 µM | > 100 µM |
| CN(C)CCNc1ncnc2c1sc1nc(-c3ccccc3)c3c(c12)CCCC3 | 17.7 µM | 20.7 µM |
| C=CCOc1ccccc1CN(C(=O)CCl)c1ccc2c(c1)OCO2 | 0.92 µM | 2.58 µM |
| COc1cccc(C(=O)NC2CC3CCCC(C2)N3CC(=O)Nc2ccc(N(C)C)cc2)c1 (stereo not drawn) | 19.7 µM | 24.8 µM |
| CC(C)=N/N=C1/NC(=O)C(Cc2ccccc2)S1 (stereo not drawn) | 23.4 µM | 25.9 µM |
| CCCC1CCC(C(=O)Nn2c(C)nc3ccccc3c2=O)CC1 (stereo not drawn) | 50.1 µM | > 100 µM |
| CC(C)(C)c1ccc(-c2nc(-c3ccncc3)no2)cc1 | 9.16 µM | 33.6 µM |
| COc1ccc(-c2cn3cc([N+](=O)[O-])ccc3n2)cc1OC | 17.8 µM | > 100 µM |
| CC(=NCc1ccc2c(c1)OCO2)C1=C(O)c2ccccc2C1=O | 1.09 µM | > 100 µM |
| O=C(NC1CCCCC1)C(c1cccs1)N(CCCN1CCOCC1)C(=O)c1ccc(-c2ccccc2)[nH]1 (stereo not drawn) | 40.2 µM | 55.5 µM |

| Structure (SMILES) | IC50 | IC90 |
| --- | --- | --- |
| Cc1ccc(NC(=S)N(CCCN2CCCC2)Cc2cccn2Cc2ccc(Cl)cc2)cc1C | 86 µM | > 100 µM |
| Cc1nn(Cc2ccccc2Cl)c2sc(C(=O)NCCCn3ccnc3)cc12 | 37.5 µM | 49.5 µM |
| COc1ccc(SC[C@H](Cc2ccccc2)N2CCN(CCc3ccccc3)CCC2=O)cc1 | 36.8 µM | 46.7 µM |
| O=C1N[C@@H](Cc2ccccc2)C(=O)N2[C@H]3Nc4ccccc4[C@@]3([C@]34C[C@H]5C(=O)N[C@@H](Cc6ccccc6)C(=O)N5[C@H]3Nc3ccccc34)C[C@@H]12 | 79.1 µM | > 100 µM |
| Cc1ccc(OCc2cc(C(=O)N(C)Cc3cnc4ccccn34)no2)cc1C | 19.6 µM | 32 µM |
| Cc1ccc(S(=O)(=O)CNC(=S)c2ccc3ccccc3c2)cc1 | – | > 100 µM |
| Cc1ccc(C2=NNC3(CCOC(C)(C)C3)S2)cc1 (stereo not drawn) | 11.1 µM | 14.9 µM |
| CCc1ccc2oc(-c3ccc(OC)cc3)cc(=Nc3c(C)n(C)n(-c4ccccc4)c3=O)c2c1 | 22.4 µM | 25.1 µM |
| CCOc1ccc(-c2[nH]ncc2-c2ccc(Cl)cc2)c(O)c1 | 46.8 µM | 66.5 µM |
| CCOc1ccc(/C=N/OCC(=O)Nc2cc(C)on2)cc1 | 29.4 µM | > 100 µM |
| Cc1ccc(N2CCN(C(=O)c3cn(CC4CCCCC4)nn3)C(C)C2)cc1 (stereo not drawn) | 4.1 µM | 12.4 µM |
| CCOC(=O)Cn1nc(-c2ccccc2)nc1-c1ccccc1 | 5.84 µM | 22.7 µM |
| Cc1nc(-c2ccccc2)sc1C(=O)/C=C/c1ccccc1 | 10.3 µM | 14.5 µM |
| CC(C)Oc1ccc(C(=O)N/N=C/c2ccc(-c3ccc(S(=O)(=O)Nc4ncccn4)cc3)o2)cc1 | 19.2 µM | 37.4 µM |
| Nc1c(C(=O)O)cnc2c(-c3ccc(Cl)cc3)cnn12 | 25.5 µM | 55.6 µM |
| C[n+]1c(-c2ccccc2)cc(CCCCc2cc(-c3ccccc3)[n+](C)c(-c3ccccc3)c2)cc1-c1ccccc1 | 17.3 µM | 21.7 µM |
| CC1=CC(=O)C(C(C)C)=C/C1=N/OS(=O)(=O)c1ccccc1 | 1.44 µM | 4.12 µM |
| Nc1cc(Cl)c2nonc2c1[N+](=O)[O-] | 5.83 µM | 6.64 µM |
| CCCOc1ccc2oc(=O)c3c(c2c1)CCCN3C(=O)CN1CCN(c2ncccn2)CC1 | 20.8 µM | 33.8 µM |
| Cc1ccccc1-n1sc2cc(F)ccc2c1=O | 18.6 µM | 22.5 µM |
| COc1ccc(Cc2nc3ccc(C(=O)NCCCSC)cc3o2)cc1OC | 41.1 µM | > 100 µM |
